Test results: publication PMC7782499, “Progerinin, an optimized progerin-lamin A binding inhibitor, ameliorates premature senescence phenotypes of Hutchinson-Gilford progeria syndrome” (Communications Biology, 2021)

Target: T1, progerin-lamin A binding (Homo sapiens, UniProt P02545)
T1 construct: expressed in transfected cells; host or cells: HEK293 (GFP-progerin); the GST-lamin A bait is a recombinant protein, with E. coli B834 (DE3) named for the lamin A/C fragments
T1 sequence (P02545 1-611 isoform P02545-6): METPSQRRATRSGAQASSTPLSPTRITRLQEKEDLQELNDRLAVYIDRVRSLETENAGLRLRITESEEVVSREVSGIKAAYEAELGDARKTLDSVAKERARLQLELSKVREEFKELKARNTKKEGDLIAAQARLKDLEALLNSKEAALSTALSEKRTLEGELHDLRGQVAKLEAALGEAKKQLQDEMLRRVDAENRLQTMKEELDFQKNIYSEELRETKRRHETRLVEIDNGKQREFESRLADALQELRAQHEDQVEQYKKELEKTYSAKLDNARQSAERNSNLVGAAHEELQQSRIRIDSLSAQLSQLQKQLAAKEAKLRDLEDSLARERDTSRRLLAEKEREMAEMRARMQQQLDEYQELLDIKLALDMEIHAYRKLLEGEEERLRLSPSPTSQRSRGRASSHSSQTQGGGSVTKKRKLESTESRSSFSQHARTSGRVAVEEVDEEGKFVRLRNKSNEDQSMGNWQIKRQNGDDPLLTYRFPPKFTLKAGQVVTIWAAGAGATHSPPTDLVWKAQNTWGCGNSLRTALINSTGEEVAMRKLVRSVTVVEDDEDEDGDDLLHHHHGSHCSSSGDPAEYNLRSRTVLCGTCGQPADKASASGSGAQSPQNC
Assay: GST pull-down assay of progerin-lamin A binding
Conditions: 5 μM
Procedure: Fig. 1 SLC-D011 ameliorates premature aging features of HGPS. A. HEK293 cells were transiently transfected with expression vector encoding wild-type lamin A (WT-LA), lamin A-C661A (LA-C661A), progerin, or progerin-C611A. LA-C661A or progerin-C611A with point mutation in CaaX motif was predicted to be lack of farnesylation, […] that of authentic WT-LA or progerin. GFP-conjugated empty expression vector was used as a negative control. Cells were visualized at 24 h after transfection. B Transient transfection of HEK293 cells with expression vector encoding progerin or progerin-G611A leads to reduced expression of H3K9me3 (n = 3 independent experiments; two-tailed Student’s t test). C. JH4 derivatives (JH010 and SLC-D011(D011)) inhibit lamin A and progerin interaction. For binding inhibition assay, bead-conjugated lamin A (GST-LA) was incubated with HEK293 cells, transiently transfected with GFP-progerin (PG), and treated with indicated chemicals. Actin was used as a loading control. PPT, co-precipitated materials with recombinant proteins; Sup supernatant. 5 μM of each chemical was used for binding assay. […] H3K9me3 reduction is a well-known marker for premature aged cells. Thus, H3K9me3 expression was evaluated by immunostaining. […] Cell viability was determined by MTT assay after incubation with chemicals for 7 days (n = 3 independent experiments; two-tailed Student’s t test). […]

For `CC1(C)Oc2cc3oc(=O)ccc3cc2C[C@@H]1OC/C=C/c1ccccc1` [SLC-D011], the “Effect on interaction of progerin and lamin A” value was “could block the interaction of progerin and lamin A”.
